Experimental data from PubChem BioAssay (NCI).
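Cultured in 96-well plates, cells were exposed to test compound for 48 hours across five concentrations. At the TGI there is no net growth.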

Legend:
Experiment in all cases: NCI tumour cell line growth inhibition, 48 h
[1] = system: 786-0 renal
[2] = system: A549 NSCLC
[3] = system: BT-549 breast
[4] = system: CAKI-1 renal
[5] = system: CCRF-CEM leukemia
[6] = system: COLO 205 colon
[7] = system: DU-145 prostate
[8] = system: EKVX NSCLC
[9] = system: HCC-2998 colon
[10] = system: HCT-116 colon
[11] = system: HCT-15 colon
[12] = system: HL-60(TB) leukemia
[13] = system: HOP-92 NSCLC
[14] = system: HS 578T breast
[15] = system: HT29 colon
[16] = system: IGROV1 ovarian
[17] = system: K-562 leukemia
[18] = system: KM12 colon
[19] = system: LOX IMVI melanoma
[20] = system: M14 melanoma
[21] = system: MCF7 breast
[22] = system: MDA-MB-231 breast
[23] = system: MDA-MB-435
[24] = system: MOLT-4 leukemia
[25] = system: NCI-H226 lung
[26] = system: NCI-H23 lung
[27] = system: NCI-H460 lung
[28] = system: NCI-H522 lung
[29] = system: NCI/ADR-RES ovarian
[30] = system: OVCAR-3 ovarian
[31] = system: OVCAR-4 ovarian
[32] = system: OVCAR-5 ovarian
[33] = system: OVCAR-8 ovarian
[34] = system: PC-3 prostate
[35] = system: RPMI-8226 leukemia
[36] = system: SF-268 CNS
[37] = system: SF-295 CNS
[38] = system: SF-539 CNS
[39] = system: SK-MEL-2 melanoma
[40] = system: SK-MEL-28 melanoma
[41] = system: SK-MEL-5 melanoma
[42] = system: SK-OV-3 ovarian
[43] = system: SN12C renal
[44] = system: SR leukemia
[45] = system: SW-620 colon
[46] = system: TK-10 renal
[47] = system: U251 CNS
[48] = system: UACC-257 melanoma
[49] = system: UACC-62 melanoma
[50] = system: UO-31 renal

SMILES: c1ccc2c(c1)nc1n2sc2nc3ccccc3n21
- TGI [1]: > 100 µM
- TGI [2]: > 100 µM
- TGI [3]: > 100 µM
- TGI [4]: > 100 µM
- TGI [5]: > 100 µM
- TGI [6]: > 100 µM
- TGI [7]: > 100 µM
- TGI [8]: > 100 µM
- TGI [9]: > 100 µM
- TGI [10]: > 100 µM
- TGI [11]: > 100 µM
- TGI [12]: > 100 µM
- TGI [13]: > 100 µM
- TGI [14]: > 100 µM
- TGI [15]: > 100 µM
- TGI [16]: > 100 µM
- TGI [17]: > 100 µM
- TGI [18]: > 100 µM
- TGI [19]: > 100 µM
- TGI [20]: > 100 µM
- TGI [21]: > 100 µM
- TGI [22]: > 100 µM
- TGI [23]: > 100 µM
- TGI [24]: > 100 µM
- TGI [25]: > 100 µM
- TGI [26]: > 100 µM
- TGI [27]: > 100 µM
- TGI [28]: > 100 µM
- TGI [29]: > 100 µM
- TGI [30]: > 100 µM
- TGI [31]: > 100 µM
- TGI [32]: > 100 µM
- TGI [33]: > 100 µM
- TGI [34]: > 100 µM
- TGI [35]: > 100 µM
- TGI [36]: > 100 µM
- TGI [37]: > 100 µM
- TGI [38]: > 100 µM
- TGI [39]: > 100 µM
- TGI [40]: > 100 µM
- TGI [41]: > 100 µM
- TGI [42]: > 100 µM
- TGI [43]: > 100 µM
- TGI [44]: > 100 µM
- TGI [45]: > 100 µM
- TGI [46]: > 100 µM
- TGI [47]: > 100 µM
- TGI [48]: > 100 µM
- TGI [49]: 79 µM
- TGI [50]: > 100 µM
